Measurements taken from patent US20230372498A1, “PLK1 SELECTIVE DEGRADATION INDUCING COMPOUND” (UPPTHERA, priority 2020, published 2023).
Read-outs that look alike come from different tables or passages of the source.

Target: T1, PLK1 (Homo sapiens, UniProt P53350)
T1 construct: endogenous in cells; host or cells: HeLa
Experiment: PLK1 protein degradation in HeLa cells, Western blotting (PLK1/GAPDH ratio)
Format: cell-based
Conditions: 6 hours compound incubation; for DC50: measured only if the grade of Dmax is A or B; for Dmax: thymidine block and release, 10 points three-fold from 3 μM, PLK1 to GAPDH ratio
From the text: The HeLa cell line was purchased from Korea Cell Line Bank (KCLB), Seoul, Korea. The passage in cell culture was maintained at P115 to P125.
For cell culture, DMEM (Gibco, Cat. No. 1195-65; Lot. No. 2085318), FBS (Gibco, Cat. No. 16000-044; Lot. No. 2097593), Penicillin/Streptomycin (PS) (Gibco, Cat. No. 15140-122; Lot. No. 2058855), 100 mm^2 cell culture dish (SPL, Cat. No. 20100), 150 mm^2 cell culture dish (SPL, Cat. No. 20150), 12-well culture plate (SPL, Cat. No. 30012), PBS pH 7.4 (Gibco, Cat. No. 10010-023; Lot. No. 2085080), TrypLE™ Express (Gibco, Cat. No. 12605-010; Lot No. 2070638), Counting Chamber (Hematocytometer) (Hirschmann, Cat. No. 8100204), and 0.4% Trypan Blue Solution (DYNEBIO, Cat. No. CBT3710; Lot. No. 20190723) were used.
2×10^5 cells were seeded for each well of a 12-well plate (SPL), and the cells were cultured in the culture medium in a total volume of 2 ml.
The compounds of Examples were completely dissolved in DMSO and used in the experiment, and thymidine was completely dissolved in DW and used in the experiment. For thymidine block, the products were treated with 2 mM of thymidine (Sigma-Aldrich Cat. No. T9250-5G) and then incubated for 24 hours.
For release and chemical treatment, the medium was suctioned and washed 3 times with 1×PBS. Complete media was added, followed by incubation for 4 hours in a CO2 incubator. Each compound was diluted three folds from the highest concentration of 3 μM to the lowest concentration in 10 points and then incubated for 6 hours again.
For SDS-PAGE and Western blotting, 1×RIPA lysis buffer (Rockland, Cat. No. MB-030-0050; Lot no. 39751), 100× Protease Inhibitor Cocktail (Quartett, Cat. No. PPI1015; Lot no. PCO50038424), Pierce™ BCA protein assay kit (ThermoScientific, Cat. No. 23225; Lot no. UC276876), albumin standard (ThermoScientific, Cat. No. 23209; Lot no. UB269561), 4-15% Mini-PROTEAN TGX stain-free gel (Bio-rad, Cat. No. 4568085; Lot no. L007041B), 10× Tris/Glycine/SDS buffer (Bio-rad, Cat. No. 1610732; Lot no. 10000044375B); 10×TBS (Bio-rad, Cat. No. 1706435; Lot no. 1000045140B), 10% Tween 20 (Cat. No. 1610781; Lot no. L004152B), Color protein standard broad range (NEB, Cat. No. P7719S; Lot no. 10040349), 4× Laemmli sample buffer (Bio-rad, Cat. No. 1610747; Lot no. L004133B), β-mercaptoethanol (Sigma-Aldrich, Cat. No. M3148; Lot no. 60-24-2), SuperBlock™ T20 (TBS) blocking buffer (ThermoScientific, Cat. No. 37536; Lot no. UC282578), 1M sodium azide solution (Sigma-Aldrich, Cat. No. 08591-1 mL-F; Lot no. BCBV4989), α-Rabbit pAb to Ms IgG (abcam, Cat. No. ab97046; Lot no. GR3252115-1), α-Goat pAb to Rb IgG (CST, Cat. No. 7074S; Lot no. 28), α-GAPDH (abcam, Cat. No. ab8245; Lot no. GR3275542-2), α-Plk1 (CST, Cat. No. 208G4), α-BRD4 (CST, Cat. No. 13440S), ECL™ Prime western blotting reagents (GE Healthcare, Cat. No. RPN2232; Lot no. 17001655), Ponceau S solution (Sigma-Aldrich, Cat. No. P7170; Lot no. SLBV4112), Difco™ Skim milk (BD, Cat. No. 232100; Lot no. 8346795), and iBlot® 2 NC Regular stacks (Invitrogen, Cat. No. IB323001; Lot no. 2NR110619-02) were used.
For cell harvesting, the cells were first separated from the plate using trypsin and then washed with the medium and PBS. Specifically, the medium was suctioned off and washed with 1 mL of PBS, and PBS was suctioned off. The cells were treated with 0.5 mL TrypLE™ Express at 37° C. for 7 minutes to separate the cells, and then 0.5 mL of complete medium was added to collect 1 mL of cell culture solution. Then, 1 mL of the cell collection solution was centrifuged at 8,000 rpm for 120 seconds, and the supernatant was removed. After washing with 0.2 mL of PBS, the PBS was removed.
For cell lysis, a lysis buffer was added and cell debris was removed to obtain a cell lysate. Specifically, the cells were treated with 70 μL of 1×RIPA buffer containing a protease inhibitor and incubated for 30 minutes on ice. Then, the cells were centrifuged at 4° C. and 15,000 rpm for 10 minutes to obtain a cell lysate. […]

T1 sequence (P53350 whole entry): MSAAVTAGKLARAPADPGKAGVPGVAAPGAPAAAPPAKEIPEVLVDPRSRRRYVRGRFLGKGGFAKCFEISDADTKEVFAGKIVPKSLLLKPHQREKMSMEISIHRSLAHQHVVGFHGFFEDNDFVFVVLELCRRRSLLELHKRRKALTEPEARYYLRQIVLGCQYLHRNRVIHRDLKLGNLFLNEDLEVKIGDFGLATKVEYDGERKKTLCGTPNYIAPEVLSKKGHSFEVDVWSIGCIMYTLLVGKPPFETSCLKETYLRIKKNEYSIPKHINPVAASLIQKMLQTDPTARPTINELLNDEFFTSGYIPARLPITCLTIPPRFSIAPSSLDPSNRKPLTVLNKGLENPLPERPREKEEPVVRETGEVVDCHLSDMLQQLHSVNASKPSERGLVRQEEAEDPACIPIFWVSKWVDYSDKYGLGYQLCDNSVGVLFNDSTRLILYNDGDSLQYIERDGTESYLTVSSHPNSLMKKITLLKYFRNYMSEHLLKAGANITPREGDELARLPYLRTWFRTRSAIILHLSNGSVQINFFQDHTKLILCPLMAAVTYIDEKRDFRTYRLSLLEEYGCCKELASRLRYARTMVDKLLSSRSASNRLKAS

DC50 [nM]	Dmax (read-out: Dmax) [%]	Structure (SMILES)	Dmax
–	< 60	COc1cc(C(=O)NC2CCN(CCCCCCCCCCCCCNc3cccc4c3C(=O)N(C3CCC(=O)NC3=O)C4=O)CC2)c(F)cc1Nc1ncc2c(n1)N(C1CCCC1)CC(F)(F)C(=O)N2C (stereo not drawn) [Compound 16, 4-((9-cyclopentyl-7,7-difluoro-5-methyl-6-oxo-6,7,8,9-tetrahydro-5H-pyrimido[4,5-b][1,4]diazepin-2-yl)amino)-N-(1-(13-((2-(2,6-dioxopiperidin-3-yl)-1,3-dioxoisoindolin-4-yl)amino)tridecyl)piperidin-4-yl)-2-fluoro-5-methoxybenzamide]	–
–	< 60	COc1cc(C(=O)NC2CCN(CCCCCCCCCCCCCCNc3cccc4c3C(=O)N(C3CCC(=O)NC3=O)C4=O)CC2)c(F)cc1Nc1ncc2c(n1)N(C1CCCC1)CC(F)(F)C(=O)N2C (stereo not drawn) [Compound 17, 4-((9-cyclopentyl-7,7-difluoro-5-methyl-6-oxo-5H,6H,7H,8H,9H-pyrimido[4,5-b][1,4]diazepin-2-yl)amino)-N-(1-(14-((2-(2,6-dioxopiperidin-3-yl)-1,3-dioxo-2,3-dihydro-1H-isoindol-4-yl)amino)tetradecyl)piperidin-4-yl)-2-fluoro-5-methoxybenzamide]	–
≤ 500	60 to 80	COc1cc(C(=O)NC2CCN(CCCOCCCNc3cccc4c3C(=O)N(C3CCC(=O)NC3=O)C4=O)CC2)c(F)cc1Nc1ncc2c(n1)N(C1CCCC1)CC(F)(F)C(=O)N2C (stereo not drawn) [Compound 18, 4-((9-cyclopentyl-7,7-difluoro-5-methyl-6-oxo-6,7,8,9-tetrahydro-5H-pyrimido[4,5-b][1,4]diazepin-2-yl)amino)-N-(1-(3-(3-((2-(2,6-dioxopiperidin-3-yl)-1,3-dioxoisoindolin-4-yl)amino)propoxy)propyl)piperidin-4-yl)-2-fluoro-5-methoxybenzamide]	–
≤ 500	60 to 80	COc1cc(C(=O)NC2CCN(CCCCOCCCNc3cccc4c3C(=O)N(C3CCC(=O)NC3=O)C4=O)CC2)c(F)cc1Nc1ncc2c(n1)N(C1CCCC1)CC(F)(F)C(=O)N2C (stereo not drawn) [Compound 19, 4-((9-cyclopentyl-7,7-difluoro-5-methyl-6-oxo-6,7,8,9-tetrahydro-5H-pyrimido[4,5-b][1,4]diazepin-2-yl)amino)-N-(1-(4-(3-((2-(2,6-dioxopiperidin-3-yl)-1,3-dioxoisoindolin-4-yl)amino)propoxy)butyl)piperidin-4-yl)-2-fluoro-5-methoxybenzamide]	–
≤ 50	≥ 80	COc1cc(C(=O)NC2CCN(CCOCCCOCCNc3cccc4c3C(=O)N(C3CCC(=O)NC3=O)C4=O)CC2)c(F)cc1Nc1ncc2c(n1)N(C1CCCC1)CC(F)(F)C(=O)N2C (stereo not drawn) [Compound 21, 4-((9-cyclopentyl-7,7-difluoro-5-methyl-6-oxo-6,7,8,9-tetrahydro-5H-pyrimido[4,5-b][1,4]diazepin-2-yl)amino)-N-(1-(2-(3-(2-((2-(2,6-dioxopiperidin-3-yl)-1,3-dioxoisoindolin-4-yl)amino)ethoxy)propoxy)ethyl)piperidin-4-yl)-2-fluoro-5-methoxybenzamide]	–

More lines, now with the values behind:

Structure (SMILES)	DC50 [nM]	Dmax (read-out: Dmax) [%]	Dmax
COc1cc(C(=O)NC2CCN(CCCCCCCNc3cccc4c3C(=O)N(C3CCC(=O)NC3=O)C4=O)CC2)c(F)cc1Nc1ncc2c(n1)N(C1CCCC1)CC(F)(F)C(=O)N2C (stereo not drawn) [Compound 11, 4-((9-cyclopentyl-7,7-difluoro-5-methyl-6-oxo-6,7,8,9-tetrahydro-5H-pyrimido[4,5-b][1,4]diazepin-2-yl)amino)-N-(1-(7-((2-(2,6-dioxopiperidin-3-yl)-1,3-dioxoisoindolin-4-yl)amino)heptyl)piperidin-4-yl)-2-fluoro-5-methoxybenzamide]	≤ 500	60 to 80	–
COc1cc(C(=O)NC2CCN(CCCCCCCCNc3cccc4c3C(=O)N(C3CCC(=O)NC3=O)C4=O)CC2)c(F)cc1Nc1ncc2c(n1)N(C1CCCC1)CC(F)(F)C(=O)N2C (stereo not drawn) [Compound 12, 4-((9-cyclopentyl-7,7-difluoro-5-methyl-6-oxo-6,7,8,9-tetrahydro-5H-pyrimido[4,5-b][1,4]diazepin-2-yl)amino)-N-(1-(8-((2-(2,6-dioxopiperidin-3-yl)-1,3-dioxoisoindolin-4-yl)amino)octyl)piperidin-4-yl)-2-fluoro-5-methoxybenzamide]	> 500	60 to 80	–
COc1cc(C(=O)NC2CCN(CCCCCCCCCNc3cccc4c3C(=O)N(C3CCC(=O)NC3=O)C4=O)CC2)c(F)cc1Nc1ncc2c(n1)N(C1CCCC1)CC(F)(F)C(=O)N2C (stereo not drawn) [Compound 13]	≤ 500	–	B (B: Dmax is 80% or less and 60% or more)
COc1cc(C(=O)NC2CCN(CCCCCCCCCCNc3cccc4c3C(=O)N(C3CCC(=O)NC3=O)C4=O)CC2)c(F)cc1Nc1ncc2c(n1)N(C1CCCC1)CC(F)(F)C(=O)N2C (stereo not drawn) [Compound 14, 4-((9-cyclopentyl-7,7-difluoro-5-methyl-6-oxo-6,7,8,9-tetrahydro-5H-pyrimido[4,5-b][1,4]diazepin-2-yl)amino)-N-(1-(10-((2-(2,6-dioxopiperidin-3-yl)-1,3-dioxoisoindolin-4-yl)amino)decyl)piperidin-4-yl)-2-fluoro-5-methoxybenzamide]	–	< 60	–
COc1cc(C(=O)NC2CCN(CCCCCCCCCCCNc3cccc4c3C(=O)N(C3CCC(=O)NC3=O)C4=O)CC2)c(F)cc1Nc1ncc2c(n1)N(C1CCCC1)CC(F)(F)C(=O)N2C (stereo not drawn) [Compound 15, 4-((9-cyclopentyl-7,7-difluoro-5-methyl-6-oxo-5H,6H,7H,8H,9H-pyrimido[4,5-b][1,4]diazepin-2-yl)amino)-N-(1-(11-((2-(2,6-dioxopiperidin-3-yl)-1,3-dioxo-2,3-dihydro-1H-isoindol-4-yl)amino)undecyl)piperidin-4-yl)-2-fluoro-5-methoxybenzamide]	> 500	60 to 80	–
COc1cc(C(=O)NC2CCN(CCCOCCCCNc3cccc4c3C(=O)N(C3CCC(=O)NC3=O)C4=O)CC2)c(F)cc1Nc1ncc2c(n1)N(C1CCCC1)CC(F)(F)C(=O)N2C (stereo not drawn) [Compound 20, 4-((9-cyclopentyl-7,7-difluoro-5-methyl-6-oxo-6,7,8,9-tetrahydro-5H-pyrimido[4,5-b][1,4]diazepin-2-yl)amino)-N-(1-(3-(4-((2-(2,6-dioxopiperidin-3-yl)-1,3-dioxoisoindolin-4-yl)amino)butoxy)propyl)piperidin-4-yl)-2-fluoro-5-methoxybenzamide]	–	< 60	–
